Assay results from PMC5011342, “A high throughput drug screening assay to identify compounds that promote oligodendrocyte differentiation using acutely dissociated and purified oligodendrocyte precursor cells” (BMC Research Notes, 2016).
Structures can show the parent of a compound that is named as a salt. Where two headings read alike, the source gives them in different places. Non-standard residues stand in square brackets, D forms with d. Residues, ends and D or L forms follow the SMILES beside them. pGlu = O=C1CC[C@@H](C(=O)O)N1; Thz = O=C(O)[C@@H]1CSCN1

How the values were obtained:
[1] = system: acutely dissociated and purified rat OPCs; assay: Acute OL differentiation assay (MBP expression/cell, immunofluorescent image quantification); type: cell-based; details: Rattus norvegicus, sheet "All OLga data"
Procedure, shortened: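 Oligodendrocyte precursor cells were enriched from P6-P7 Sprague–Dawley rat brains by immunopanning (RAN-2 and GalC depletion, O4 selection), plated at 5000 cells/well in serum-free, mitogen-free differentiation media on PDL/laminin 96-well view plates, centrifuged at 200×g, and pre-incubated 1–2 h before test compounds were added in quadruplicate. On DIV4, cells were fixed, stained for MBP and DAPI, imaged automatically, and MBP expression per cell was quantified.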

expanded OPCs = assay: cells; details: for viability at 0.1 µM / viability at 1 µM / viability at 10 µM: Rattus norvegicus, 72 h; for 0.1 µM (% DMSO) / 1 µM (% DMSO) / 10 µM (% DMSO): alamarBlue viability of expanded OPCs, relative to DMSO control; for 0.1 µM (% DMSO): compound at 0.1 µM; for 1 µM (% DMSO): compound at 1 µM; for 10 µM (% DMSO): compound at 10 µM
Procedure, shortened: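 Expanded OPCs seeded at 10,000 cells/well in differentiation media, then exposed to NCC library compounds at 10, 1 and 0.1 µM (quadruplicate, 0.1% DMSO) for three days. Viability read as alamarBlue fluorescence (560/590 nm) after 4 h at 37 °C; tunicamycin 5 ng/ml served as toxicity control.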

[2] = 0.4 uM test compound, relative to quetiapine, read-out: OL differentiation, 0.4 uM (% Quet)
[3] = 2 uM test compound, relative to quetiapine, read-out: OL differentiation, 2 uM (% Quet)
[4] = read-out: 0.1 µM (% DMSO), alamarBlue viability, NCC library compound at 0.1 µM, sheet "All Tox data"
[5] = read-out: 1 µM (% DMSO), alamarBlue viability, NCC library compound at 1 µM, sheet "All Tox data"
[6] = read-out: 10 µM (% DMSO), alamarBlue viability, NCC library compound at 10 µM, sheet "All Tox data"
[7] = read-out: 0.1 µM (% DMSO), alamarBlue viability of expanded OPCs, compound at 0.1 µM, sheet All Tox data
[8] = read-out: 1 µM (% DMSO), alamarBlue viability of expanded OPCs, compound at 1 µM, sheet All Tox data
[9] = read-out: 10 µM (% DMSO), alamarBlue viability of expanded OPCs, compound at 10 µM, sheet All Tox data
[10] = 10 uM test compound, relative to quetiapine, read-out: OL differentiation, 10 uM (% Quet)
[11] = test compound at 2 uM, NCC library screen, relative to quetiapine, read-out: 2 uM (% Quet)
[12] = test compound at 10 uM, NCC library screen, relative to quetiapine, read-out: 10 uM (% Quet)

Row | Structure (SMILES) | activation at 2 µM [1, 3] | viability at 0.1 µM (expanded OPCs; [7]) | viability at 1 µM (expanded OPCs; [8]) | viability at 10 µM (expanded OPCs; [9]) | activation at 10 µM [1, 10] | other results
1 | O=C1Nc2ccc(Cl)cc2[C@@](C#CC2CC2)(C(F)(F)F)O1 [Efavirenz] | 40.9% | – | – | – | – | activation at 0.4 µM [1, 2]: 3.8%; viability at 0.1 µM (expanded OPCs; [4]): 90.4%; viability at 1 µM (expanded OPCs; [5]): 85.6%; viability at 10 µM (expanded OPCs; [6]): 16.8%
2 | CC(C)[C@]12O[C@H]1[C@@H]1O[C@]13[C@]1(O[C@H]1C[C@H]1C4=C(CC[C@@]13C)C(=O)OC4)[C@@H]2O [Triptolide] | – | 73.9% | 13.2% | 13.7% | – | activation at 0.08 µM ([1]; 0.08 uM test compound, relative to quetiapine, read-out: OL differentiation, 0.08 uM (% Quet)): 3.9%; activation at 0.4 µM [1, 2]: -23.3%
3 | CC(=O)O[C@]1(C(C)=O)CC[C@H]2[C@@H]3C=C(C)C4=CC(=O)CC[C@]4(C)[C@H]3CC[C@@]21C [Megestrol acetate] | -21.6% | 97.2% | 89.3% | 96.5% | -29.4% | –
4 | CC(=O)CC(c1ccccc1)c1c(O)c2ccccc2oc1=O (stereo not drawn) [Warfarin] | – | – | – | – | – | activation at 2 µM [1, 11]: -4.3%; activation at 10 µM [1, 12]: -2%; 0.1 µM (% DMSO) (expanded OPCs): 92.9 % DMSO; 1 µM (% DMSO) (expanded OPCs): 93.8 % DMSO; 10 µM (% DMSO) (expanded OPCs): 96.2 % DMSO
5 | Nc1ncnc2c1ncn2[C@@H]1O[C@H](CO)[C@@H](O)[C@H]1O [Adenosine] | – | – | – | – | – | activation at 2 µM [1, 11]: 3.3%; activation at 10 µM [1, 12]: -9.9%; viability at 0.1 µM (expanded OPCs; [4]): 88.5%; viability at 1 µM (expanded OPCs; [5]): 81.3%; viability at 10 µM (expanded OPCs; [6]): 80.5%
6 | CC1(C)O[C@@H]2[C@@H](CO[C@@]3(COS(N)(=O)=O)OC(C)(C)O[C@@H]23)O1 [Topiramate] | 8.5% | 94% | 93.5% | 86.5% | 0.05% | –
7 | CC1=C(/C=C/C(C)=C/C=C/C(C)=C\C(=O)O)C(C)(C)CCC1 [Isotretinoin] | – | – | – | – | – | activation at 2 µM ([1]; test compound at 2 uM, MBP expression relative to quetiapine, NCC library screen, read-out: 2 uM (% Quet)): -19.2%; activation at 10 µM ([1]; test compound at 10 uM, MBP expression relative to quetiapine, NCC library screen, read-out: 10 uM (% Quet)): -6.2%; 0.1 µM (% DMSO) (expanded OPCs): 104.5 % DMSO; 1 µM (% DMSO) (expanded OPCs): 112.6 % DMSO; 10 µM (% DMSO) (expanded OPCs): 136.3 % DMSO
8 | Cc1ncc([N+](=O)[O-])n1CCO [Metronidazole] | 0.09% | 84.6% | 88.7% | 79.3% | 24.8% | –
9 | COC(=O)C1=C(C)NC(C)=C(C(=O)OC2CCCN(Cc3ccccc3)C2)C1c1cccc([N+](=O)[O-])c1 (stereo not drawn) [Benidipine] | 3.1% | 84.6% | 93% | 11.6% | – | activation at 0.4 µM [1, 2]: 7.1%
10 | O=C1CN2Cc3c(ccc(Cl)c3Cl)N=C2N1 [Anagrelide hydrochloride] | -7% | – | – | – | -4.5% | viability at 0.1 µM (expanded OPCs; [4]): 93.1%; viability at 1 µM (expanded OPCs; [5]): 90.4%; viability at 10 µM (expanded OPCs; [6]): 81.2%
11 | Clc1ccc(COC(Cn2ccnc2)c2ccc(Cl)cc2Cl)c(Cl)c1 (stereo not drawn) [Miconazole] | – | – | – | – | – | activation at 0.4 µM ([1]; test compound at 0.4 uM, NCC library screen, relative to quetiapine, read-out: 0.4 uM (% Quet)): 43.2%; 0.1 µM (% DMSO) (expanded OPCs): 91.9 % DMSO; 1 µM (% DMSO) (expanded OPCs): 108.6 % DMSO; 10 µM (% DMSO) (expanded OPCs): 9.2 % DMSO
12 | O=C1CC[C@@H](C(=O)N2CSC[C@H]2C(=O)O)N1 [Pidotimod] ([pGlu]-[Thz]-OH) | 7.5% | 96.9% | 105% | 104% | -1.8% | –
13 | CCOC(=O)C1=C(C)NC(C)=C(C(=O)OC)C1c1cccc([N+](=O)[O-])c1 (stereo not drawn) [Nitrendipine] | -27% | 104% | 90.7% | 35.6% | – | activation at 0.4 µM [1, 2]: -4.7%
14 | CC(C)Oc1ccc2c(=O)c(-c3ccccc3)coc2c1 [Ipriflavone] | 22.5% | 87.3% | 92.1% | 117% | 32% | –
